How the values were obtained:
Assay in all cases: relative viability (nuclei count vs DMSO), 5 days (fraction); higher = more cells survive
[1] = compound: CN(c1ncccc1CNc1nc(Nc2ccc3c(c2)CC(=O)N3)ncc1C(F)(F)F)S(C)(=O)=O + CC(=O)c1c(C)c2cnc(Nc3ccc(N4CCNCC4)cn3)nc2n(C2CCCC2)c1=O [Palbociclib] (partner 0.5 µM)
How it was run: (§1)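 Nuclei were stained with Hoechst during a one-step fixation (final 0.05% Triton X-100, 1% formaldehyde, 1 ug/ml Hoechst) carried out 5 days after dosing, then counted on 4× images. The cells, lung cancer lines in 1536-well plates, had been dosed by pin tool the day after seeding with one drug alone or a fixed anchor-drug dose plus five library-drug doses (not always all listed) in √10 steps. Relative viability is the nuclei count in treated wells divided by that in vehicle wells, and each value is the median of duplicate plates.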

[2] = compound: CN(c1ncccc1CNc1nc(Nc2ccc3c(c2)CC(=O)N3)ncc1C(F)(F)F)S(C)(=O)=O + Cc1nc(Nc2ncc(C(=O)Nc3c(C)cccc3Cl)s2)cc(N2CCN(CCO)CC2)n1 [Dasatinib] (partner 0.075 µM)
How it was run: as §1

[3] = compound: CN(c1ncccc1CNc1nc(Nc2ccc3c(c2)CC(=O)N3)ncc1C(F)(F)F)S(C)(=O)=O + CCNC(=O)c1noc(-c2cc(C(C)C)c(O)cc2O)c1-c1ccc(CN2CCOCC2)cc1 [Luminespib] (partner 0.01 µM)
How it was run: as §1

[4] = compound: CN(c1ncccc1CNc1nc(Nc2ccc3c(c2)CC(=O)N3)ncc1C(F)(F)F)S(C)(=O)=O + CC(C)C[C@H](NC(=O)[C@H](Cc1ccccc1)NC(=O)c1cnccn1)B(O)O [Bortezomib] (partner 0.002 µM)
How it was run: as §1

| Cell Line | relative viability ([1]; first compound 0.01 µM) | relative viability ([1]; first compound 0.03162 µM) | relative viability ([1]; first compound 0.1 µM) | relative viability ([1]; first compound 0.3162 µM) | relative viability ([1]; first compound 1 µM) | relative viability ([2]; first compound 0.01 µM) | relative viability ([2]; first compound 0.03162 µM) | relative viability ([2]; first compound 0.1 µM) | relative viability ([2]; first compound 0.3162 µM) | relative viability ([2]; first compound 1 µM) | relative viability ([3]; first compound 0.01 µM) | relative viability ([3]; first compound 0.03162 µM) | relative viability ([3]; first compound 0.1 µM) | relative viability ([3]; first compound 0.3162 µM) | relative viability ([3]; first compound 1 µM) | relative viability ([4]; first compound 0.01 µM) | relative viability ([4]; first compound 0.03162 µM) | relative viability ([4]; first compound 0.1 µM) | relative viability ([4]; first compound 0.3162 µM) | relative viability ([4]; first compound 1 µM) |
| --- | --- | --- | --- | --- | --- | --- | --- | --- | --- | --- | --- | --- | --- | --- | --- | --- | --- | --- | --- | --- |
| COR-L 105 | 0.426 | 0.411 | 0.41 | 0.427 | 0.376 | 0.274 | 0.25 | 0.343 | 0.282 | 0.288 | 0.691 | 0.712 | 0.809 | 0.766 | 0.526 | 0.889 | 0.733 | 0.835 | 0.814 | 0.595 |
| LK-2 | 0.784 | 0.723 | 0.666 | 0.662 | 0.717 | 0.316 | 0.293 | 0.269 | 0.312 | 0.27 | 0.175 | 0.174 | 0.165 | 0.201 | 0.235 |  |  |  |  |  |
| NCI-H727 | 0.681 | 0.607 | 0.651 | 0.684 | 0.688 | 0.363 | 0.287 | 0.271 | 0.272 | 0.264 | 0.407 | 0.232 | 0.289 | 0.25 | 0.367 | 0.897 | 1 | 0.73 | 0.765 | 0.731 |
| RERF-LC-KJ | 1.17 | 1.15 | 1.09 | 1.03 | 1.02 | 0.767 | 0.809 | 0.708 | 0.723 | 0.743 | 1.16 | 1.34 | 1.17 | 1.28 | 1.19 | 1.08 | 1.23 | 1.11 | 1.13 | 0.999 |
| NCI-H2023 | 0.382 | 0.405 | 0.376 | 0.339 | 0.229 | 0.476 | 0.588 | 0.428 | 0.432 | 0.448 | 0.696 | 0.79 | 0.597 | 0.643 | 0.611 | 0.985 | 1.02 | 0.963 | 0.945 | 0.938 |
| NCI-H322M | 0.481 | 0.503 | 0.529 | 0.475 | 0.488 | 0.205 | 0.178 | 0.223 | 0.199 | 0.219 | 0.798 | 1 | 0.966 | 1.03 | 0.896 | 1.26 | 1.41 |  | 1.38 | 1.44 |
| NCI-H1666 | 0.696 | 0.614 | 0.627 | 0.639 | 0.543 | 0.804 | 0.778 | 0.961 | 0.935 | 0.603 | 0.936 | 0.939 | 0.923 | 0.786 | 0.612 | 0.887 | 0.678 | 0.668 | 0.708 | 0.589 |
| SW 900 | 0.513 | 0.48 | 0.52 | 0.52 | 0.456 | 0.559 | 0.613 | 0.477 | 0.456 | 0.403 | 0.216 | 0.2 | 0.19 | 0.154 | 0.168 |  |  |  |  |  |
| NCI-H2087 | 0.23 | 0.277 | 0.258 | 0.252 | 0.279 | 0.828 | 0.795 | 0.61 | 0.542 | 0.451 | 0.164 | 0.239 | 0.162 | 0.185 | 0.185 | 1.13 | 0.699 | 0.882 | 0.807 | 0.768 |
| LU99A | 0.406 | 0.517 | 0.465 | 0.411 | 0.448 | 0.63 | 0.529 | 0.378 | 0.254 | 0.267 | 0.316 | 0.264 | 0.323 | 0.325 | 0.246 | 1.15 | 1.26 | 1.09 | 1.43 | 1.22 |
| HCC-366 | 0.41 | 0.391 | 0.342 | 0.336 | 0.316 | 0.541 | 0.904 | 0.598 | 0.644 | 0.687 |  |  |  |  |  | 0.927 | 1.24 | 1.09 | 1.02 | 1.06 |
| EKVX | 0.369 | 0.372 | 0.359 | 0.285 | 0.352 | 0.464 | 0.425 | 0.447 | 0.411 | 0.347 | 0.923 | 1.03 | 0.839 | 0.869 | 0.786 | 1.02 | 1.19 | 1.11 | 0.923 | 0.83 |
| NCI-H2342 | 0.564 | 0.536 | 0.548 | 0.497 | 0.455 | 0.32 | 0.306 | 0.306 | 0.286 | 0.297 | 0.702 | 0.736 | 0.643 | 0.632 | 0.723 |  |  |  |  |  |
| NCI-H1755 | 0.449 | 0.473 | 0.452 | 0.44 | 0.434 | 0.414 | 0.412 | 0.329 | 0.365 | 0.325 | 0.531 | 0.41 | 0.479 | 0.389 | 0.419 | 0.985 | 0.967 | 0.983 | 0.849 | 0.826 |
| NCI-H647 | 0.349 | 0.402 | 0.319 | 0.367 | 0.322 | 0.146 | 0.193 | 0.127 | 0.151 | 0.125 | 0.127 | 0.163 | 0.122 | 0.103 | 0.119 | 0.934 | 1.52 | 1.04 | 0.931 | 0.886 |
| LC-2-ad | 0.523 | 0.451 | 0.522 | 0.473 | 0.463 | 0.414 | 0.484 | 0.492 | 0.399 | 0.335 | 1.22 | 1.05 | 0.967 | 0.98 | 0.845 | 1.04 | 1 | 1.06 | 0.961 | 0.799 |
| NCI-H1793 | 0.314 | 0.321 | 0.328 | 0.341 | 0.324 | 0.375 | 0.336 | 0.409 | 0.311 | 0.353 | 0.218 | 0.181 | 0.212 | 0.175 | 0.138 |  |  |  |  |  |

From the supplement of paper PMC10307832
